Assays:
VEGFR-2 (KDR) = experiment: TaqMan Real-time PCR gene expression in implants: VEGFR-2 (KDR); assay type: in vivo, mice; settings: for VEGFR-2 (KDR) relative expression: vehicle 1.0 ± 0.1, Mean ± SD
Excerpt: (§1) TaqMan Real-time PCR and 2^−ΔΔCt methods were used to analyze the gene expression profiles of three different markers that promote angiogenesis (VEGF, VEGFR-2, Notch-4); Angiopoietin-1 (Ang-1), an antiangiogenesis marker which promotes the enlargement of existing vessels and resistance to leakage; and Wnt-1.
(§2) TaqMan Real-time PCR and 2^−ΔΔCt methods were used to analyze the gene expression profiles of three different markers that promote angiogenesis (VEGF, VEGFR-2, Notch-4); Angiopoietin-1 (Ang-1), an antiangiogenesis marker which promotes the enlargement of existing vessels and resistance to leakage; and Wnt-1. The housekeeping 18S rRNA was used to normalize the target gene Ct values. The Ct value in each group was expressed relative to the control group Ct values (calibrator), to calculate the relative expression by the 2^−ΔΔCt method. cDNA obtained from sarcoma 180 tumor cells (S-180) and human umbilical vein endothelial cells (HUVEC) was used as negative and positive control, respectively, for the VEGF and VEGFR-2 gene expression. Spleen was used as positive control for Ang-1 and Wnt-1, and lung was employed as a Notch-4 positive control.

Notch-4 = experiment: TaqMan Real-time PCR gene expression in implants: Notch-4; assay type: in vivo, mice; settings: for Notch-4 relative expression: vehicle 1.0 ± 0.1, Mean ± SD
Excerpt: as §1, §2

[1] = test system: blood vessels in endometriotic lesions; experiment: Immunofluorescence (vWF/α-SMA) of new and mature blood vessels in the implants; assay type: in vivo, mice; settings: low and high dose groups vs control
Method: The anti-angiogenic effects of the dopamine agonists were assessed by immunofluorescence, the antibodies used in confocal microscopy raised against Von Willebrand factor (vWF monoclonal IgG1, DAKO Corp., Denmark) present in endothelial cells and vascular smooth muscle cells (monoclonal IgG2 α-SMA-FITC conjugated de Sigma, St Louis, USA). Blood vessel which are not of new formation, are rounded by a smooth muscle layer which confers maturity to them. Identification of endothelial cells was made employing vWF, whereas mature vessels were identified by α-SMA positive staining. Thus, vWF+/αSMA− blood vessels were considered new or immature, while vWF+/αSMA+ vessels were classified as old or mature blood vessels.
The angiogenic status of the lesions was initially analyzed using immunofluorescence employing antibodies to identify new (vWF+/αSMA−) and old vessels (vWF+/αSMA+) and confocal microscopy (Leica Confocal Software). Immunofluorescence employing antibodies raised against the Von Willebrand factor (vWF) present in endothelial cells and vascular smooth muscle cells (α-SMA) can be used to test the antiangiogenic action Cb2. Blood vessel which are not of new formation, are rounded by a smooth muscle layer which confers maturity to them. Identification of endothelial cells was made employing vWF, whereas mature vessels were identified by α-SMA positive staining. […]

Ang-1 = experiment: TaqMan Real-time PCR gene expression in implants: Ang-1; assay type: in vivo, mice; settings: for Ang-1 relative expression: vehicle 1.1 ± 0.2, Mean ± SD
Excerpt: as §1, §2

[2] = mouse, in vivo
Excerpt: (§4) Three weeks after implantation the animals were split into three groups. […] Two weeks after treatment the animals were sacrificed and the endometriotic lesions sampled and analysed as set out below.

[3] = Toxicity in the nude mouse endometriosis study; settings: 0.05 and 0.1 mg/kg/day oral, two weeks
Excerpt: as §4

Wnt-1 = experiment: TaqMan Real-time PCR gene expression in implants: Wnt-1; assay type: in vivo, mice; settings: for Wnt-1 relative expression: vehicle 1.0 ± 0.1, Mean ± SD
Excerpt: as §1, §2

endometriotic lesions [4] = experiment: Nude mouse endometriosis model: active lesions, histology (OM, TEM) and morphometry; assay type: in vivo, mice; settings: for percentage of active lesions: two weeks, control 89.6±5.7%, p=0.0169, mean ± SEM
Method: An experimental animal endometriosis model was developed in nude mice by inserting human endometrium fragments. Female mice (Hsd: Athimic Nude-nu, Harlan Ibérica S. L, Barcelona, Spain) were individually housed in autoclaved cages and bedding, in laminar flow filtered hoods. The animal room was maintained at 26 C with a 12-h light, 12-h dark cycle, and mice were fed ad libitum with autoclaved laboratory rodent chow and acidified water. All handling was performed in laminar flow filtered hoods. A mixture of ketamine/medetomidine (75 μg/g ketamine and 1 μg/g medetomidine) (Ketolar®, Parke-Davis, España; Domtor®, Pfizer, Spain) i.p injected, was used to anesthetize mice before invasive procedures and atipamezole (Antisedan®, SmithKline Beecham, Spain) 1 μg/g i.p injected, to reverse the anesthesia effects, was used after invasive procedures, using sterile instruments.
At the age of 5 weeks, sterile 60-d release capsules containing 18 mg 17β-estradiol (Innovative Research of America, Sarasota, Fla.) were placed sc in the neck of each animal. According to the manufacturer's information, capsules provide continuous release of hormone at serum concentrations of 150-250 pmol/liter, in the range of physiological levels in mice during the estrous cycle. This stable physiological level of estrogen promotes the growth of transplanted human endometrium and avoids intermouse differences related to various stages of the estrous cycle.
Four days after insertion of the estrogen pellet, an entrance was made to the peritoneal cavity in the midline in the lower abdomen to insert fresh human endometrium from ovum pick-up donors. These fragments were stuck by glue (Vetabond®, 3M Animal Care products, USA) to the peritoneum. This protocol allowed to mimic the pathologic situation of retrograde menstruation that occur in women with endometriosis.
(§3) Morphometric study was performed to measure the implants area and cellular density. Immunocytochemistry with Ki-67 (monoclonal IgG1 DAKO Corp., Denmark) antibody was performed in order to evaluate the proliferative activity of the implants. The histopathological and subcellular ultrastructural changes were detected using an optical microscope (OM), transmission electronic microscope (TEM) and histochemical staining. Optical microscopy (OM), transmission electron microscopy (TEM) and morphometry were performed to ascertain the presence of endometrial glands and stroma and study subcellular ultrastructural changes, area of the implants and cellular density.

endometriotic lesions [5] = experiment: Ki-67 immunocytochemistry, proliferative activity of the implants; assay type: in vivo, mice; settings: both low and high dose groups vs control; P<0.001
Method: as §3
An immunocyto chemistry study using the Ki-67 antibody (i.e. analysing the degree of cellular proliferation employing antibodies against Ki-67) was used to evaluate the proliferative activity of the implants using methods known in the art.

VEGF = experiment: TaqMan Real-time PCR gene expression in implants: VEGF; assay type: in vivo, mice; settings: for VEGF relative expression: vehicle 1.2 ± 0.3, Mean ± SD
Excerpt: as §1, §2

[6] = low and high dose groups, p <0.05

C=CCN1C[C@H](C(=O)N(CCCN(C)C)C(=O)NCC)C[C@@H]2c3cccc4[nH]cc(c34)C[C@H]21 [cabergoline]
VEGFR-2 (KDR) relative expression (VEGFR-2 (KDR); HIGH DOSE (0.1 mg/kg/day)): 0.3 ± 0.1 | VEGFR-2 (KDR) relative expression (VEGFR-2 (KDR); LOW DOSE (0.05 mg/kg/day)): 0.4 ± 0.1 | Expression of VEGFR-2 (KDR) in treated groups vs vehicle (VEGFR-2 (KDR); [6]): Downregulated | Notch-4 relative expression (Notch-4; HIGH DOSE (0.1 mg/kg/day)): 0.4 ± 0.1 | Notch-4 relative expression (Notch-4; LOW DOSE (0.05 mg/kg/day)): 0.5 ± 0.1 | Expression of Notch-4 in treated groups vs vehicle (Notch-4; [6]): Downregulated | new blood vessel formation (angiogenesis) [1]: significantly reduced new blood vessel formation | Ang-1 relative expression (Ang-1; HIGH DOSE (0.1 mg/kg/day)): 3.7 ± 0.6 | Ang-1 relative expression (Ang-1; LOW DOSE (0.05 mg/kg/day)): 3.2 ± 0.6 | Expression of Ang-1 in treated groups vs vehicle (Ang-1; [6]): Upregulated | body weight of the mice in the different treatment groups [2]: not significantly different | mortality following administration [3]: No mice in the study died | Wnt-1 relative expression (Wnt-1; HIGH DOSE (0.1 mg/kg/day)): 3.3 ± 0.6 | Wnt-1 relative expression (Wnt-1; LOW DOSE (0.05 mg/kg/day)): 3.4 ± 0.2 | Expression of Wnt-1 in treated groups vs vehicle (Wnt-1; low and high dose groups, p =0.07): Upregulated | ratio glands/stroma (morphometry) (endometriotic lesions [4]; both low (0.05 mg/kg/day) and high (0.1 mg/kg/day) doses vs controls, p<0.05): more stroma and less glands than the controls | cellular density (morphometry) (endometriotic lesions [4]; control, low and high dose groups): no statistical difference among groups | histology of treated lesions (OM and TEM) (endometriotic lesions [4]; high and low dose): a lax stroma, with lost cellularity and organization | percentage of active lesions (endometriotic lesions [4]; high dose 0.1 mg/kg/day oral): 60.4±8.4% | percentage of active lesions (endometriotic lesions [4]; low dose 0.05 mg/kg/day oral): 58.6±9.7% | proliferation (Proliferation Index, Ki-67 positive cells) (endometriotic lesions [5]): decrease in proliferation | VEGF relative expression (VEGF; HIGH DOSE (0.1 mg/kg/day)): 0.4 ± 0.1 | VEGF relative expression (VEGF; LOW DOSE (0.05 mg/kg/day)): 0.5 ± 0.2 | VEGF expression in endometrial implants (VEGF; increasing doses (control, 0.05, 0.1 mg/kg/day), FIG. 6a): trend towards decreased VEGF expression | Expression of VEGF in treated groups vs vehicle (VEGF; [6]): Downregulated

— patent publication US9023862B2, “Medicament for the treatment of endometriosis” (Ferring International Center S.A., priority 2007, dated 2015)
